This is an account of results in PMC9495854, “Novel Phenothiazine/Donepezil-like Hybrids Endowed with Antioxidant Activity for a Multi-Target Approach to the Therapy of Alzheimer’s Disease” (Antioxidants, 2022).

Marks after values point to notes of the source that are not given here.

In one data set the test system is SH-SY5Y cells. The data set can be described thus: DCFH-DA cell-based antioxidant assay (H2O2-induced oxidation), SH-SY5Y. The note with it: Homo sapiens, SHSY-5Y, 1 h compound, 100 μM H2O2, read-out: DCFDH-DA IC50 ± SEM SHSY-5Y. How it is done: (§1) HepG2 cells were cultured in Eagle’s Minimum Essential Medium (MEM, Euroclone S.p.A., Pero, MI, Italy), supplemented with 10% Fetal Bovine Serum (FBS, Euroclone S.p.A., Pero, MI, Italy), 1% L-glutamine (Euroclone S.p.A., Pero, MI, Italy), 100 U/mL penicillin/streptomycin (Euroclone S.p.A., Pero, MI, Italy), 1% Non-Essential Amino Acids (NEAA, Euroclone S.p.A., Pero, MI, Italy). SH-SY5Y cells were grown in a 1:1 mixture of Dulbecco’s modified Eagle’s medium (DMEM)—high glucose (Euroclone S.p.A., Pero, MI, Italy) and Ham’s F12 Medium (Euroclone S.p.A., Pero, MI, Italy) supplemented with 10% FBS, 1% L-glutamine and 100 U/mL penicillin/streptomycin. For cell assays, cells were trypsinized using Trypsin-EDTA 1X in PBS (Euroclone S.p.A., Pero, MI, Italy).
According to a slightly modified procedure already reported in the literature, the generation of ROS was determined using an oxidation-sensitive fluorescent probe, 2′,7′-dichlorodihydrofluorescein diacetate (DCFH-DA, D6665; Sigma-Aldrich, St. Louis, MO, USA). Briefly, viable cells were seeded in a black 96-well cell culture plate (Costar, Sigma-Aldrich, St. Louis, MO, USA) and after 24 h were incubated with different concentrations (0.1–100 µM) of each compound for 1 h at 37 °C in 5% CO2. […] After washing using PBS, 100 μM H2O2 in medium without serum was added to each well and the cells were incubated for an additional 30 min. The formation of fluorescent dichlorofluorescein (DCF) due to oxidation of DCFH in the presence of ROS, was read at 530 nm using a microplate reader Tecan Infinite M1000 Pro (Tecan, Cernusco S.N., Italy) and DMSO medium was used for control cells. The results are expressed as mean ± SEM of at least three independent measurements in triplicate.

Data set [1] in a line: MTT cell viability assay, HepG2. As to conditions: human, HepG2 cells; for IC50 at 1 h: HepG2, 1 h exposure; for IC50 at 24 h: HepG2, 24 h exposure, read-out: MTT cytotoxicity IC50 ± SEM HepG2 24 h. Type of data set: cell-based. How it is done:
as §1, with “Human hepatocellular liver carcinoma (HepG2) cell line and human neuroblastoma cell line, SH-SY5Y, were purchased from the American Type Culture Collection (ATCC, Manassas, VA, USA) and maintained at 37 °C in a humidified atmosphere (95% air and 5% carbon dioxide), and they were periodically screened for contamination. HepG2” for “HepG2”
HepG2 and SH-SY5Y cell viability was assessed as previously reported by using a conventional 3-(4,5-dimethylthiazol-2-yl)-2,5-diphenyltetrazolium bromide (MTT) assay. In brief, viable cells were seeded and grown for 24 h into a sterile 96-well cell culture cluster (Corning, Sigma-Aldrich, St. Louis, MO, USA) in a complete medium and maintained at 37 °C in a humidified atmosphere with 5% CO2. The cells were then added with different concentrations of each compound for a period of 1 h or 24 h. At the end, the culture medium was replaced by a solution of 0.5 mg/mL MTT (Sigma-Aldrich, St. Louis, MO, USA) in PBS. After 2 h of incubation at 37 °C in 5% CO2, the supernatant was carefully removed from each well, and the formazan crystals were dissolved in DMSO. The absorbance values were measured at 570 nm using Tecan Infinite M1000 Pro (Tecan, Cernusco S.N., Italy) and DMSO medium as blank solution. The results were reported as % cell viability = [optical density (OD) of tested compound/medium OD of control cells] × 100. The results are expressed as mean ± SEM of at least three independent measurements in triplicate.
In general terms: Formazan colour is commonly taken as a measure of viable cells.

The target of another data set is T1, Aβ1-40 aggregation (Homo sapiens, UniProt P05067).
T1 construct: purchased EZBiolab
The data set can be described thus: Inhibition of Aβ40 aggregation, ThT fluorescence. As to conditions: inhibitor 10 µM, Aβ40 30 µM, PBS pH 7.4, 2% HFIP, 2 h 25 °C, mean ± SEM; for inhibition at 10 µM: read-out: Aβ1-40 Aggregation (I% at 10 µM). The format is biochemical. How it is done: ThT fluorescence in the presence of Aβ was measured for each compound according a previously described procedure. The samples were co-incubated and mixed in 96-well black, non-binding microplates (Greiner Bio-One GmbH, Frickenhausen, Germany), incubating Aβ40 (EZBiolab, Carmel, IN, USA) at a final concentration of 30 µM with each inhibitors at a final concentration of 10 µM in PBS (pH 7.4) containing 2% 1,1,1,3,3,3-hexafluoro-2-propanol (HFIP). After 2 h at 25 °C, a 25 µM ThT solution was added and fluorescence was determined using the multi-plate reader Tecan Infinite M1000 Pro (Tecan, Cernusco S.N., Italy). The results are reported as mean of three independent experiments ± SEM [13].

In the next data set the target is T2, hAChE (Homo sapiens, UniProt P22303).
T2 construct: purchased
As to the kind of experiment: biochemical. Type of data set: biochemical. The note with it: mean ± SEM; for hAChE I% at 10 µM: inhibition at 10 µM. How it is done:
(§2) The experiments were carried out using a properly modified version of Ellman’s spectrophotometric assay, adapted to a 96-well plate procedure. All reagents, including enzymes, were purchased from common suppliers. Incubation of the proper enzyme with the single compound at different concentrations was performed in clear flat-bottomed, 96-well plates (Greiner Bio-One GmbH, Frickenhausen, Germany) and in duplicate. […] Fluorescence measures were carried out using Tecan Infinite M1000 Pro multiplate reader (Tecan, Cernusco S.N., Italy). IC50 values and inhibition values were calculated as the mean of three independent experiments and are expressed as mean ± SEM [13].

For the next data set, the target named is T3, hBChE (Homo sapiens, UniProt P06276).
T3 construct: purchased
As to the kind of experiment: biochemical. As to conditions: mean ± SEM. How it is done: as §2

T2 sequence (P22303 32-614): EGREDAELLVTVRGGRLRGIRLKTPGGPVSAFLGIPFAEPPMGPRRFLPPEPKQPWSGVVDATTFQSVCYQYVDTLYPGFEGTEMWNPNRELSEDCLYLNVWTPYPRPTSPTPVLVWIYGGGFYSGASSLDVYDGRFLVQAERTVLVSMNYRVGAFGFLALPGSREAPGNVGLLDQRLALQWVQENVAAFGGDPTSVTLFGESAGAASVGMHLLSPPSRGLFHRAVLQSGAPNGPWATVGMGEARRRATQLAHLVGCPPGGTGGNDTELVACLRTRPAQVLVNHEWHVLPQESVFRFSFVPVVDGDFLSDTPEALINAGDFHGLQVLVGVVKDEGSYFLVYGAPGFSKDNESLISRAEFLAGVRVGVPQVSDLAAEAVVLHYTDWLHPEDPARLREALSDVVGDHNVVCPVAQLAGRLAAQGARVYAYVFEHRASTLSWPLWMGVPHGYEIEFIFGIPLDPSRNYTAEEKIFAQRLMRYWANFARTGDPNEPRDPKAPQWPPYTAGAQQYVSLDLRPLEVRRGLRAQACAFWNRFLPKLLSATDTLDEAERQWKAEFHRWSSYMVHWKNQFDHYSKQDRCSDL
T3 sequence (P06276 29-602): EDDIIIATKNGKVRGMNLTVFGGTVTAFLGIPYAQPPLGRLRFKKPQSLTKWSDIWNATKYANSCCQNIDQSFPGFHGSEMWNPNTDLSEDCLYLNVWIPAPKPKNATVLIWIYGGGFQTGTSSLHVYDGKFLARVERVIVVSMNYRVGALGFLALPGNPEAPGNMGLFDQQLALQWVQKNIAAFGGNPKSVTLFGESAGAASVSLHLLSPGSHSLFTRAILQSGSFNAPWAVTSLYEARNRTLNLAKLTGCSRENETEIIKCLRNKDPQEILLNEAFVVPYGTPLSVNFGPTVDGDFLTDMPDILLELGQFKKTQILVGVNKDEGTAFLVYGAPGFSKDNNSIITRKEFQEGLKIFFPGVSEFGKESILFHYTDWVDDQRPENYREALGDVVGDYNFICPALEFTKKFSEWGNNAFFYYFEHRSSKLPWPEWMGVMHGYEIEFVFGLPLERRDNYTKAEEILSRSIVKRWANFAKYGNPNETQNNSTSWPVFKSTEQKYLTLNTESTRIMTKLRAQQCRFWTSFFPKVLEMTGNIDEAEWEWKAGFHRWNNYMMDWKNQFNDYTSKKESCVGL
T1 sequence (P05067 672-711 limits assumed): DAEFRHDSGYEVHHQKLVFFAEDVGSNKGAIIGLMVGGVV

In the case of `O=C(NCC1CCN(Cc2ccccc2)CC1)c1ccc2c(c1)Nc1ccccc1S2` [Compound 11a, N-((1-Benzylpiperidin-4-yl)methyl)-10H-phenothiazine-2-carboxamide], the IC50 (commonly the midpoint of a concentration-inhibition curve) in the data set with SH-SY5Y cells amounted to 14.1 ± 0.6 µM; on hAChE it was 0.597 ± 0.064 µM; against hBChE it was 2.16 ± 0.27 µM. Further, the IC50 at 1 h in data set [1] is more than 100 µM. In addition, in data set [1], the IC50 at 24 h turned out to be 62.7 ± 0.7 µM. In addition, on Aβ1-40 aggregation, the inhibition at 10 µM was determined as 8%.
Consider `O=C(NCC1CCN(Cc2ccccc2Cl)CC1)c1ccc2c(c1)Nc1ccccc1S2` [Compound 11b, N-((1-(2-Chlorobenzyl)piperidin-4-yl)methyl)-10H-phenothiazine-2-carboxamide], for which the results for the IC50 with SH-SY5Y cells and on hBChE were 1.32 ± 0.2 µM and 1.98 ± 0.12 µM, respectively. In data set [1], this compound showed an IC50 at 1 h of more than 100 µM. The IC50 at 24 h in data set [1] amounted to 27.7 ± 0.4 µM. In addition, the inhibition at 10 µM on Aβ1-40 aggregation was determined as 20%. For the same compound, the “hAChE I% at 10 µM” value at hAChE was 52% ± 1 ^b.
As for `Cc1ccccc1CN1CCC(CNC(=O)c2ccc3c(c2)Nc2ccccc2S3)CC1` [Compound 11c, N-((1-(2-Methylbenzyl)piperidin-4-yl)methyl)-10H-phenothiazine-2-carboxamide], the half-maximal inhibitory concentration (IC50) with SH-SY5Y cells turned out to be 2.11 ± 0.4 µM. For the same compound, in data set [1], the IC50 at 1 h is more than 100 µM and the IC50 at 24 h amounted to 35.2 ± 1.1 µM. The inhibition at 10 µM at Aβ1-40 aggregation amounted to 47%. Also, the “hAChE I% at 10 µM” value at hAChE is on record as 44% ± 2 ^b. On hBChE, this compound showed a half-inhibitory concentration (IC50) of 1.47 ± 0.03 µM.
Consider `O=C(NCC1CCN(Cc2ccccc2F)CC1)c1ccc2c(c1)Nc1ccccc1S2` [Compound 11d, N-((1-(2-Fluorobenzyl)piperidin-4-yl)methyl)-10H-phenothiazine-2-carboxamide], for which the concentration for half-maximal inhibition (IC50) was 1.43 ± 0.5 µM in the data set with SH-SY5Y cells, 1.75 ± 0.11 µM on hAChE and 1.2 ± 0.01 µM against hBChE. Besides, in data set [1], the IC50 at 1 h was more than 100 µM. Moreover, the IC50 at 24 h in data set [1] amounted to 41 ± 0.2 µM. Moreover, the inhibition at 10 µM on Aβ1-40 aggregation stood at 43%.
`COc1cccc(CN2CCC(CNC(=O)c3ccc4c(c3)Nc3ccccc3S4)CC2)c1` [Compound 11e, N-((1-(3-Methoxybenzyl)piperidin-4-yl)methyl)-10H-phenothiazine-2-carboxamide]: the IC50 with SH-SY5Y cells was determined as 1.12 ± 0.9 µM. In addition, in data set [1], the IC50 at 1 h was more than 100 µM and the IC50 at 24 h came out at 14.9 ± 0.61 µM. For the same compound, on Aβ1-40 aggregation, the inhibition at 10 µM came to 24%. Moreover, the “hAChE I% at 10 µM” value at hAChE is 22% ± 4 ^b. In addition, the “hBChE I% at 10 µM” value at hBChE (inhibition at 10 µM) is listed as 47% ± 1 ^b.
Take `O=C(NCCN1CCN(Cc2ccccc2)CC1)c1ccc2c(c1)Nc1ccccc1S2` [Compound 12a, N-(2-(4-Benzylpiperazin-1-yl)ethyl)-10H-phenothiazine-2-carboxamide]: the IC50 in the data set on SH-SY5Y cells was 2.01 ± 0.61 µM; against hAChE, 0.943 ± 0.046 µM; at hBChE, 2.02 ± 0.03 µM. The IC50 at 1 h in data set [1] was more than 100 µM. For the same compound, the IC50 at 24 h in data set [1] turned out to be 28.8 ± 0.42 µM. The inhibition at 10 µM at Aβ1-40 aggregation worked out at 43%.
Consider `O=C(NCCN1CCN(Cc2ccccc2Cl)CC1)c1ccc2c(c1)Nc1ccccc1S2` [Compound 12b, N-(2-(4-(2-Chlorobenzyl)piperazin-1-yl)ethyl)-10H-phenothiazine-2-carboxamide], for which the IC50 with SH-SY5Y cells stood at 9.1 ± 1.42 µM; against hAChE, 1.85 ± 0.15 µM. The compound also had an IC50 at 1 h in data set [1] of more than 100 µM. Besides, in data set [1], the IC50 at 24 h was more than 100 µM. Further, the inhibition at 10 µM on Aβ1-40 aggregation is 27%.
`Cc1ccccc1CN1CCN(CCNC(=O)c2ccc3c(c2)Nc2ccccc2S3)CC1` [Compound 12c, N-(2-(4-(2-Methylbenzyl)piperazin-1-yl)ethyl)-10H-phenothiazine-2-carboxamide]: the IC50 in the data set on SH-SY5Y cells is 11.3 ± 0.21 µM. Further, in data set [1], the IC50 at 1 h is more than 100 µM and the IC50 at 24 h was more than 100 µM. Also, on hAChE, the “hAChE I% at 10 µM” value is 56% ± 3 ^b. At hBChE, this compound registered an IC50 of 2.5 ± 0.06 µM.
As to `O=C(NCCN1CCN(Cc2ccccc2F)CC1)c1ccc2c(c1)Nc1ccccc1S2` [Compound 12d, N-(2-(4-(2-Fluorobenzyl)piperazin-1-yl)ethyl)-10H-phenothiazine-2-carboxamide], the results for the IC50 with SH-SY5Y cells, against hAChE and on hBChE were 11.7 ± 1.11 µM, 0.599 ± 0.112 µM and 4.33 ± 0.19 µM, respectively. For the same compound, the IC50 at 1 h in data set [1] was more than 100 µM. In addition, the IC50 at 24 h in data set [1] turned out to be 42.9 ± 1.81 µM. In addition, the inhibition at 10 µM at Aβ1-40 aggregation turned out to be 60%.
Turning to `CC(=O)N1c2ccccc2Sc2ccc(C(=O)NCCN3CCN(Cc4ccccc4Cl)CC3)cc21` [Compound 13, 10-Acetyl-N-(2-(4-(2-chlorobenzyl)piperazin-1-yl)ethyl)-10H-phenothiazine-2-carboxamide], the IC50 with SH-SY5Y cells was found to be 1.22 ± 0.2 µM. In data set [1], the IC50 at 1 h is more than 100 µM and the IC50 at 24 h is more than 100 µM. The “Aβ1-40 Aggregation (I% at 10 µM)” value on Aβ1-40 aggregation is recorded as “lack of activity”. Further, on hAChE, the “hAChE I% at 10 µM” value is listed as 48% ± 5 ^b.
